Measured values as given in patent US10441630B2, “Topical formulations and uses thereof” (OCULAR TECHNOLOGIES SARL, priority 2012, dated 2019).

What was measured:
[1] = Physical appearance, melt method, HCO-40 and compound 1001; format: physicochemical; details: 1001 4 wt %
Method: The preparation of MNF encapsulating compound 1001 (neat oil) can be divided into two steps. […] […] To this melt polymer compound 1001 (˜20 mg), thermostated at 40° C., was added and mixed for homogenous distribution. […] (in refrigerator).
This aqueous solution was allowed to reach room temperature, under natural conditions. The pH of the solution was adjusted to 5.5 and the volume was made up with 2× phosphate buffer saline (pH 5.5) containing octoxynol-40 (0.01 wt %) and PVP-K-90 (1.2 wt %). The formulation was filtered through 0.2 μm nylon filter to remove any foreign material and obtain a clear homogenous aqueous RX-1001 formulation.
The results obtained for physical appearance of the mixture, different phases, at different temperatures and appearance of final formulation are summarized in Tables 3a-3c.

[2] = Weight percent of drug loaded into MNF (entrapment, RP-HPLC); format: physicochemical; details: HCO-60 4 wt %, Octoxynol-40 0.01 wt %
Method: To determine the entrapment efficiency of the formulation, all the prepared formulations were subjected to entrapment efficiency test. Briefly, formulations were vortex mixed for homogeneity and 1 mL was transferred to a fresh (1.5 mL) eppendorf tube. Each formulation was lyophilized to obtain a solid at the bottom of eppendorf tube. The obtained solid was suspended in 1 mL of organic solvent (diethyl ether) to generate reverse micelles and release the drug into the external organic solvent. The organic solvent was evaporated overnight in speed vacuum. The resultant reversed micelles were resuspended in 1 mL of 2-propanol (dilution factor was taken into account) and further diluted to determine the concentration of compound 1001 entrapped in each micellar preparation with HPLC. The entrapment efficiency of the formulation was calculated with the following formula (wherein MNF=Mixed Nanomicellar Formulation): […]
In vitro analysis of compound 1001 was performed by a reversed phase high performance liquid chromatography (RP-HPLC) method with a Shimadzu HPLC pump (Shimadzu, Shimadzu Scientific instruments, Columbia, Md.), Alcott autosampler (model 718 AL), Shimadzu UV/Visible detector (Shimadzu, SPD-20A/20AV, USA), ODS column (5 μm, 150×4.6 mm) thermostated at 40°±1 C and Hewlett Packard HPLC integrator (Hewlett Packard, Palo Alto, Calif.). The mobile phase was comprised of methanol (MeOH), water and trifluoroacetic acid (TFA) (70:30:0.05% v/v) which was set at a flow rate of 0.5 mL/min. Detection wavelength was set at 272 nm. The sample tray temperature was maintained at 4° C. Calibration curve (0.5 to 5 μg/mL) for compound 1001 was prepared by making appropriate dilutions from the stock solution in 2-propanol. An injection volume of 10 μl was injected into the HPLC column for analysis. All the standards and samples prepared were stored at 4° C. before and during the analysis.
Mixed nanomicellar formulation encapsulating compound 1001 was prepared by solvent evaporation method in two steps: 1) Preparation of basic formulation and 2) rehydration. In step one, compound 1001, HCO-60 and octoxynol-40 were dissolved separately in 0.3 mL of ethyl acetate. These three solutions were mixed together in 15-mL centrifuge tube. The resultant mixture was vortexed to obtain a homogenous solution. Ethyl acetate solvent was removed with speed vacuum to obtain a solid thin film. The residue was kept overnight under high vacuum at room temperature to remove residual organic solvent. In step two, the resultant thin film was hydrated with 1 mL of double distilled deionized water by vortexing the solution. The rehydrated formulation was suspended in 2× phosphate buffer solution, (pH 6.5). It was filtered through 0.2 μm nylon filter membrane to remove the unentrapped drug aggregates and other foreign particulates. The entrapment of compound 1001 was determined by RP-HPLC following disruption of the micelles and solubilization of 1001 in the diluent (2-propanol) as described below
Weight percent of drug loaded into MNF was determined following the method for entrapment efficiency. Size and polydispersity index of the formulations was determined with Malvern zetasizer as described above. The formulations appear clear and have small size and narrow size distribution.

[3] = Ocular tissue distribution of compound 1001 and RX-10008 by LC-MS/MS; format: in vivo, rabbit
Method: A study was conducted in rabbits to test the tolerance and ocular tissue distribution of two nanomicellar formulations of compound 1001 (RX10045) against matching placebos (Table 7a and 7b) and balanced saline solution (BSS). Healthy New Zealand female white rabbits (2-3 kg) were used for this study. One drop (approximately 35 μL) of study drug was applied o.d. 4×/day at two hour intervals for 5 days. One drop of BSS was applied to the contralateral eye.
Selected ocular fluids/tissues (aqueous humor, vitreous humor, conjunctiva, cornea, iris-ciliary body, lens, retina/choroid, and sclera) collected from two rabbits each in the RX-10045 (0.15% in HCO-60, 0.1% in HCO-40) treatment groups, and from one rabbit in each of the matching placebo groups, were assayed for compound 1001 and another resolvin by liquid chromatography-tandem mass spectrometry (LC-MS/MS). Warfarin-d5 and 5-HDA were used as internal standards for the analysis of RX-10045 and its active metabolite, RX-10008, respectively, in aqueous humor and vitreous humor. For the other ocular tissues (solid tissues), warfarin-d5 and phenyl acetic acid-d5 (PAA-d5) were used as the internal standards for compound 1001 and RX-10008, respectively. The analytical range for the solid tissues were 0.125-100 ng. The results of the solid tissue analyses were converted to ng/g by correcting for the amount of tissue analyzed.

[4] = rabbits, RX-10045 formulations 4×/day for 5 days

## C#CC[C@@H](O)/C=C/C=C/C#C[C@@H](O)CCCC(=O)OC(C)C [compound 1001]
[1]; HCO-40 0.5 wt %
  Final formulation: Emulsion
  Mixture physical appearance at room temperature (25° C.): Viscous yellow liquid
  Resuspend in water: Emulsion
[1]; HCO-40 0.75 wt %
  Final formulation: Emulsion
  Mixture physical appearance at room temperature (25° C.): Viscous yellow liquid
  Resuspend in water: Emulsion
[1]; HCO-40 1.0 wt %
  Final formulation: Emulsion
  Mixture physical appearance at room temperature (25° C.): Viscous yellow liquid
  Resuspend in water: Emulsion
[1]; HCO-40 1.25 wt %
  Final formulation: Emulsion
  Mixture physical appearance at room temperature (25° C.): Viscous yellow liquid
  Resuspend in water: Emulsion
[1]; HCO-40 1.5 wt %
  Final formulation: Emulsion
  Mixture physical appearance at room temperature (25° C.): Viscous yellow liquid
  Resuspend in water: Emulsion
[1]; HCO-40 1.75 wt %
  Final formulation: Emulsion
  Mixture physical appearance at room temperature (25° C.): Viscous yellow liquid
  Resuspend in water: Emulsion
[1]; HCO-40 2.0 wt %
  Final formulation: Emulsion
  Mixture physical appearance at room temperature (25° C.): Viscous yellow liquid
  Resuspend in water: Emulsion
[1]; HCO-40 2.25 wt %
  Final formulation: Emulsion
  Mixture physical appearance at room temperature (25° C.): Viscous yellow liquid
  Resuspend in water: Emulsion
[1]; HCO-40 2.5 wt %
  Final formulation: Yellow color
  Mixture physical appearance at room temperature (25° C.): Viscous yellow liquid
  Resuspend in water: Yellow
[1]; HCO-40 2.75 wt %
  Final formulation: Pale yellow
  Mixture physical appearance at room temperature (25° C.): Viscous yellow liquid
  Resuspend in water: Pale
[1]; HCO-40 3.0 wt %
  Final formulation: Clear solution
  Mixture physical appearance at room temperature (25° C.): Viscous yellow liquid
  Resuspend in water: Clear
[1]; HCO-40 4.0 wt %
  Final formulation: Clear solution
  Mixture physical appearance at room temperature (25° C.): Viscous yellow liquid
  Resuspend in water: Clear
[2]; 1001 initially added 0.035 wt %
  1001 (loaded in mixed micelles) wt %: 0.033 wt %
[2]; 1001 initially added 0.070 wt %
  1001 (loaded in mixed micelles) wt %: 0.065 wt %
[2]; 1001 initially added 0.095 wt %
  1001 (loaded in mixed micelles) wt %: 0.084 wt %
[2]; 1001 initially added 0.120 wt %
  1001 (loaded in mixed micelles) wt %: 0.11 wt %
[2]; 1001 initially added 0.250 wt %
  1001 (loaded in mixed micelles) wt %: 0.26 wt %
[2]; 1001 initially added 0.300 wt %
  1001 (loaded in mixed micelles) wt %: 0.32 wt %
[2]; 1001 initially added 0.400 wt %
  1001 (loaded in mixed micelles) wt %: 0.45 wt %
[3]; rabbit ocular tissues
  hydrolysis to active metabolite RX-10008: rapidly hydrolyzed
[3]; [4]
  compound 1001 in the majority of ocular tissues: either not detected or was below the quantitation limit
  concentrations of the compound 1001 ester prodrug in the sclera and conjunctiva: sporadic, relatively low
